According to patent publication US20080227768A1, “Crystal of 1-Methylcarbapenem Compound” (priority 2005, published 2008):
Like-named read-outs stand apart in the source and are kept apart here.

Assays:
[1] = Storage Stability Test-1 (sealed brown glass bottle, 25° C., purity by HPLC); assay type: physicochemical; details: HPLC peak area ratio
Procedure: The crystalline form of the present invention obtained according to Example 2 and a crystalline form described in Japanese Patent Application Publication (Kokai) No. 2001-72681 ((1R,5S,6S)-6-[(1R)-1-hydroxyethyl]-1-methyl-2-[(2S,4S)-2-[(3S)-3-(2-guanidinoacetylamino)pyrrolidin-1-ylcarbonyl]-1-methylpyrrolidin-4-ylthio]-1-carbepen-2-em-3-carboxylic acid·monoethanolate·trihydrate, referred to as Crystalline form 1) were sealed in a brown glass bottle at a constant temperature of 25° C. followed by measurement of purity at the start of the test, one month later and two months later using high performance liquid chromatography (column: Develosil RPAQUEOUS 4.6×150 mm, column temperature: 60° C., developer flow rate: 1.0 ml/min, developer: 0.02 M aqueous potassium dihydrogen phosphate solution/acetonitrile=95/5 to 50/50). The resulting purities were represented as the ratios of the areas of the chromatographic peaks.

[2] = Storage Stability Test-2 (sealed brown glass bottle, 40° C., purity by HPLC); assay type: physicochemical; details: HPLC peak area ratio
Procedure: The crystalline form of the present invention obtained according to Example 2 and Crystalline form 1 were sealed in a brown glass bottle at a constant temperature of 40° C. followed by measurement of purity at the start of the test and one month later using high performance liquid chromatography (column: Develosil RPAQUEOUS 4.6×150 mm, column temperature: 60° C., developer flow rate: 1.0 ml/min, developer: 0.02 M aqueous potassium dihydrogen phosphate solution/acetonitrile=95/5 to 50/50). The resulting purities were represented as the ratios of the areas of the chromatographic peaks.

[3] = Water Solubility Test (time to completely dissolve); assay type: physicochemical; details: for Dissolving time: 300 mg of crystals sized through 150 μm mesh, 10 ml of water, 25° C., complete dissolution
Excerpt: The crystalline form of the present invention obtained according to Example 2 and a crystalline form described in Japanese Patent Application Publication (Kokai) No. 2001-72681 ((1R,5S,6S)-6-[(1R)-1-hydroxyethyl]-1-methyl-2-[(2S,4S)-2-[(3S)-3-(2-guanidinoacetylamino)pyrrolidin-1-ylcarbonyl]-1-methylpyrrolidin-4-ylthio]-1-carbepen-2-em-3-carboxylic acid, referred to as Crystalline form 2) were sized by passing through a 150 μm mesh filter followed by measurement of the amount of time required for 300 mg of the crystals to completely dissolve in 10 ml of water at 25° C.

[4] = system: Gram-negative bacteria and Gram-positive bacteria; details: cited from earlier work

SMILES	Purity (%) 1 month later [1] [%]	Purity (%) 2 months later [1] [%]	Purity (%) Start of test [1] [%]	Purity 1 month later (%) [2] [%]	Purity at start of test (%) [2] [%]	Dissolving time [3] [min]	solubility in water (in words) ([3]; compared with the known crystalline form)	antibacterial activity ([4]; from Patent Documents 1 and 2, listed as formula (I))	antibacterial activity ([4]; from Patent Documents 1 and 2)
C[C@@H](O)[C@H]1C(=O)N2C(C(=O)O)=C(S[C@H]3C[C@@H](C(=O)N4CC[C@H](NC(=O)CNC(=N)N)C4)N(C)C3)[C@H](C)[C@H]12 (stereo in doubt) [Crystalline form of present invention, (1R,5S,6S)-6-[(1R)-1-Hydroxyethyl]-1-methyl-2-[(2S,4S)-2-[(3S)-3-(2-guanidinoacetylamino)pyrrolidin-1-ylcarbonyl]-1-methylpyrrolidin-4-ylthio]-1-carbapen-2-em-3-carboxylic acid acetonate]	98.43	98.40	98.35	98.35	98.35	2.5	superior to that of the known crystalline form		
CCO.C[C@@H](O)[C@H]1C(=O)N2C(C(=O)O)=C(S[C@H]3C[C@@H](C(=O)N4CC[C@H](NC(=O)CNC(=N)N)C4)N(C)C3)[C@H](C)[C@H]12.O.O.O [Crystalline form 1, (1R,5S,6S)-6-[(1R)-1-hydroxyethyl]-1-methyl-2-[(2S,4S)-2-[(3S)-3-(2-guanidinoacetylamino)pyrrolidin-1-ylcarbonyl]-1-methylpyrrolidin-4-ylthio]-1-carbepen-2-em-3-carboxylic acid·monoethanolate·trihydrate, reference compound]	98.35	98.06	98.45	98.26	98.45				
C[C@@H](O)[C@H]1C(=O)N2C(C(=O)O)=C(S[C@H]3C[C@@H](C(=O)N4CC[C@H](NC(=O)CNC(=N)N)C4)N(C)C3)[C@H](C)[C@H]12 [Crystalline form 2, (1R,5S,6S)-6-[(1R)-1-hydroxyethyl]-1-methyl-2-[(2S,4S)-2-[(3S)-3-(2-guanidinoacetylamino)pyrrolidin-1-ylcarbonyl]-1-methylpyrrolidin-4-ylthio]-1-carbepen-2-em-3-carboxylic acid, reference compound]						8.0			
C[C@@H](O)[C@H]1C(=O)N2C(C(=O)O)=C(S[C@H]3C[C@@H](C(=O)N4CC[C@H](NC(=O)CNC(=N)N)C4)N(C)C3)[C@H](C)[C@H]12 [compound (I), (1R,5S,6S)-6-[(1R)-1-hydroxyethyl]-1-methyl-2-[(2S,4S)-2-[(3S)-3-(2-guanidinoacetylamino)pyrrolidin-1-ylcarbonyl]-1-methylpyrrolidin-4-ylthio]-1-carbapen-2-em-3-carboxylic acid]								potent antibacterial activity	excellent antibacterial activity
